# Data from patent US10085442B2, “Agrochemical formulation” (SYNGENTA PARTICIPATIONS AG, priority 2014, dated 2018).
# Assay: Rainfastness of cyantraniliprole on soya leaf (Example 10)
# Type: physicochemical, Glycine Max (Williams variety)
# Conditions: rain 10 mm/hour for one hour, 0.5 g of water replaced by copolymer
# Experimental: A range of substrates can be used in this test with the chosen material in this example being a soya leaf. Herein the soya, Glycine Max (Williams variety), was grown for 4 weeks in 4 inch pots with the top 2 tri-foliates used in the study. The leaves were mounted using double sided tape to flat tiles (30 cm by 30 cm) at an even spacing of 6 leaves per tile.
# A deposition solution was then prepared at the concentration which would be used under commercial application conditions. In this case 0.12 g of cyantraniliprole technical was added to […] water for the control and the effect of the styrene malemide co-polymer determined by creating a similar sample with 0.5 g of the water replaced by styrene malemide co-polymer. […]
# The quantities of cyantraniliprole in the acetonitrile solutions determined by mass spectrometry using a Waters Acquity UPLC and Thermo TSQ Quantum Ultra Triple Quadrupole MS Instrument or just LC/MS/MS. • Column: • Phase Ace C18 • Length (mm) 50 • Internal diameter (mm) 3.0 • Particle Size (μm) 3 • and the % active ingredient remaining after rainfall determined by dividing the quantity of cyantraniliprole on each leaf after rainfall by that before rainfall. • Cyantraniliprole: 2% cyantraniliprole remained on the leaves. • Cyantraniliprole+styrene malemide copolymer: 45% cyantraniliprole remained on the leaves.
smiles,measurement,value
"CNC(=O)c1cc(C#N)cc(C)c1NC(=O)c1cc(Br)nn1-c1ncccc1Cl [Cyantraniliprole, cyantraniliprole]",% cyantraniliprole remained on the leaves after rainfall,2%
